According to patent US20250171430A1, “PYRAZOLYL COMPOUNDS AS KV7 CHANNEL ACTIVATORS” (Biohaven Therapeutics Ltd., priority 2022, published 2025):

Target: T1, Kv7.2/7.3 (Homo sapiens, UniProt O43525+O43526)
T1 construct: Kv7.2 tetracycline-induced, Kv7.3 constitutive
Experiment: Kv7.2/7.3 Activation Assay (Thallium Flux Assay)
Format: cell-based
Details: hKV7.2/7.3 cell line; test compound at single concentration of 10 μM; fluorescence at 90 sec normalized to positive control (retigabine, 30 μM)
Excerpt: The Thallium Flux Assay is used as a surrogate indicator of potassium channel activity.
The experimental protocol was adapted from the FluxOR™ II Green Potassium Ion Channel Assay User Guide (Pub. No. MAN0016084, Invitrogen). Conditions were optimized for the Kv7.2/7.3 cell line.
Cell Line: The hKV7.2/7.3 cell line was obtained from Chantest (cat. #CT6147).
Cell Culture: Kv7.2/7.3 cells were maintained in a media containing DMEM/F12; 50/50 (Fisher 11-330), 10% Fetal Bovine Serum (FBS) (Fisher 26-140), 100 units/mL Penicillin-Streptomycin (Fisher 15-140), 0.005 mg/ml Blasticidin (InvivoGen ant-bl-1), 0.5 mg/mL Geneticin (InvivoGen ant-gn-5), and 0.1 mg/mL Zeocin (Fisher R25001). One day prior to experimentation, cells were plated in 96 well clear bottom plates (Corning cat. #353219) in a media without Blasticidin, Geneticin, or Zeocin. In this cell line Kv7.3 channel expression is controlled by a constitutive promoter. Kv7.2 channel expression was induced by adding tetracycline (Sigma T7660) at a final concentration of 10 ng/mL overnight in a cell culture incubator at 37° C. and 5% CO2. On the day of assay, the cell culture medium in the 96-well plates was replaced by assay buffer containing the thallium-sensitive fluorescent sensor, FluxOR II Green prepared according to manufacturer's instructions. The 96-well plates were then incubated for 1 h at 37° C. Following the incubation, the FluxOR II Green-containing solution was replaced with extracellular solution.
Test Compound Plates: The test compound is diluted in a mixture of 0.1% DMSO/extracellular solution at a single concentration of 10 μM. Dilutions were made on a Biomek NXP (BECKMAN COULTER). Extracellular solution contained (in mM: 145 NaCl, 4 KCl, 2 CaCl2), 1 MgCl2, 10 HEPES, and 10 Glucose, pH 7.4).
Measurement and data analysis: Thallium-flux-mediated changes in intracellular fluorescence were made using a plate reader (Enspire, Perkin Elmer) set with an excitation wavelength of 475 nm and an emission wavelength of 530 nm. After a 15 sec baseline measurement, the stimulus buffer containing thallium and potassium was added to the 96-well plate containing FluxOR II Green-loaded cells and test compounds. Fluorescence values at 90 sec were normalized to the positive control (retigabine, 30 μM) and test compound activities were assigned categories according to the formula: “No Activity <0.15, “+” Moderate Activity 0.15-0.7, and “++” High Activity >0.7.

SMILES | Kv7.2/7.3 Activity
Cn1nc(NC(=O)CC2(C(F)(F)F)CC2)c(C2CCC2)c1-c1ccccc1 [Compound 12, N-(4-cyclobutyl-1-methyl-5-phenyl-1H-pyrazol-3-yl)-2-(1-(trifluoromethyl)cyclopropyl)acetamide] | ++ (“++” High Activity ≥ 0.7)
Cn1nc(NC(=O)CC(C)(C)C(F)(F)F)c(C2CCC2)c1-c1ccccc1 [Compound 13, N-(4-cyclobutyl-1-methyl-5-phenyl-1H-pyrazol-3-yl)-4,4,4-trifluoro-3,3-dimethylbutanamide] | ++ (“++” High Activity ≥ 0.7)
Cn1nc(NC(=O)C[C@@H]2CC(F)(F)C2(F)F)c(C2CCC2)c1-c1ccc(F)cc1 [Compound 14, (R)-N-(4-cyclobutyl-5-(4-fluorophenyl)-1-methyl-1H-pyrazol-3-yl)-2-(2,2,3,3-tetrafluorocyclobutyl)acetamide] | ++ (“++” High Activity ≥ 0.7)
Cn1nc(NC(=O)C[C@@H]2CC(F)(F)C2(F)F)c(C2CCC2)c1Cc1ccccc1 [Compound 15, (R)-N-(5-benzyl-4-cyclobutyl-1-methyl-1H-pyrazol-3-yl)-2-(2,2,3,3-tetrafluorocyclobutyl)acetamide] | ++ (“++” High Activity ≥ 0.7)
Cn1nc(NC(=O)C[C@H]2CC(F)(F)C2(F)F)c(C2CCC2)c1Cc1ccccc1 [Compound 16, (S)-N-(5-benzyl-4-cyclobutyl-1-methyl-1H-pyrazol-3-yl)-2-(2,2,3,3-tetrafluorocyclobutyl)acetamide] | ++ (“++” High Activity ≥ 0.7)
Cn1nc(NC(=O)C[C@@H]2CC(F)(F)C2(F)F)c(C2CCC2)c1-c1noc2ccccc12 [Compound 18, (R)-N-(5-(benzo[d]isoxazol-3-yl)-4-cyclobutyl-1-methyl-1H-pyrazol-3-yl)-2-(2,2,3,3-tetrafluorocyclobutyl)acetamide] | ++ (“++” High Activity ≥ 0.7)
Cn1nc(NC(=O)C[C@H]2CC(F)(F)C2(F)F)c(C2CCC2)c1-c1noc2ccccc12 [Compound 19, (S)-N-(5-(benzo[d]isoxazol-3-yl)-4-cyclobutyl-1-methyl-1H-pyrazol-3-yl)-2-(2,2,3,3-tetrafluorocyclobutyl)acetamide] | ++ (“++” High Activity ≥ 0.7)
Cc1c(NC(=O)CC(C)(C)C(F)(F)F)nn(C)c1-c1ccc(F)cc1 [Compound 20, 4,4,4-trifluoro-N-(5-(4-fluorophenyl)-1,4-dimethyl-1H-pyrazol-3-yl)-3,3-dimethylbutanamide] | ++ (“++” High Activity ≥ 0.7)
Cn1nc(NC(=O)C[C@H]2CC(F)(F)C2(F)F)c(C2CCC2)c1-c1ccc(F)cc1 [Compound 21, (S)-N-(4-cyclobutyl-5-(4-fluorophenyl)-1-methyl-1H-pyrazol-3-yl)-2-(2,2,3,3-tetrafluorocyclobutyl)acetamide] | ++ (“++” High Activity ≥ 0.7)
CC(C)c1c(NC(=O)CC(C)(C)C)nn(C)c1-c1ccc(F)cc1 [Compound 22, N-(5-(4-fluorophenyl)-4-isopropyl-1-methyl-1H-pyrazol-3-yl)-3,3-dimethylbutanamide] | ++ (“++” High Activity ≥ 0.7)
CC(C)c1c(NC(=O)CC(C)(C)C)nn(C)c1-c1ccc(OC(F)(F)F)cc1 [Compound 23, N-(4-isopropyl-1-methyl-5-(4-(trifluoromethoxy)phenyl)-1H-pyrazol-3-yl)-3,3-dimethylbutanamide] | ++ (“++” High Activity ≥ 0.7)
CC(C)c1c(NC(=O)C[C@@H]2CC(F)(F)C2(F)F)nn(C)c1-c1ccc(OC(F)(F)F)cc1 [Compound 24, (R)-N-(4-isopropyl-1-methyl-5-(4-(trifluoromethoxy)phenyl)-1H-pyrazol-3-yl)-2-(2,2,3,3-tetrafluorocyclobutyl)acetamide] | ++ (“++” High Activity ≥ 0.7)
CC(C)c1c(NC(=O)C[C@H]2CC(F)(F)C2(F)F)nn(C)c1-c1ccc(OC(F)(F)F)cc1 [Compound 25, (S)-N-(4-isopropyl-1-methyl-5-(4-(trifluoromethoxy)phenyl)-1H-pyrazol-3-yl)-2-(2,2,3,3-tetrafluorocyclobutyl)acetamide] | ++ (“++” High Activity ≥ 0.7)
CC(C)c1c(NC(=O)CC2(C(F)(F)F)CC2)nn(C)c1-c1ccc(OC(F)(F)F)cc1 [Compound 26, N-(4-isopropyl-1-methyl-5-(4-(trifluoromethoxy)phenyl)-1H-pyrazol-3-yl)-2-(1-(trifluoromethyl)cyclopropyl)acetamide] | ++ (“++” High Activity ≥ 0.7)
Cn1nc(NC(=O)C[C@@H]2CC(F)(F)C2(F)F)c(C2CCC2)c1-c1ccc(OC(F)(F)F)cc1 [Compound 30, (R)-N-(4-cyclobutyl-1-methyl-5-(4-(trifluoromethoxy)phenyl)-1H-pyrazol-3-yl)-2-(2,2,3,3-tetrafluorocyclobutyl)acetamide] | ++ (“++” High Activity ≥ 0.7)

Results, then the compound that gave them:

Kv7.2/7.3 Activity | SMILES
+ (“+” Moderate Activity 0.15-0.7) | Cc1c(C2CCC2)c(NC(=O)Cc2cc(F)cc(F)c2)nn1C [Compound 1, N-(4-cyclobutyl-1,5-dimethyl-1H-pyrazol-3-yl)-2-(3,5-difluorophenyl)acetamide]
+ (“+” Moderate Activity 0.15-0.7) | CCn1nc(NC(=O)CC(C(F)(F)F)C(F)(F)F)c(C2CC2)c1C [Compound 2, N-(4-cyclopropyl-1-ethyl-5-methyl-1H-pyrazol-3-yl)-4,4,4-trifluoro-3-(trifluoromethyl)butanamide]
++ (“++” High Activity ≥ 0.7) | CCn1nc(NC(=O)Cc2cc(F)cc(F)c2)c(C2CC2)c1C [Compound 3, N-(4-cyclopropyl-1-ethyl-5-methyl-1H-pyrazol-3-yl)-2-(3,5-difluorophenyl)acetamide]
− (“−” No Activity < 0.15) | CCn1nc(NC(=O)CC(C)(C)O)c(C2CC2)c1C [Compound 4, N-(4-cyclopropyl-1-ethyl-5-methyl-1H-pyrazol-3-yl)-3-hydroxy-3-methylbutanamide]
− (“−” No Activity < 0.15) | CCn1nc(NC(=O)CC(C)C)c(C2CC2)c1C [Compound 5, N-(4-cyclopropyl-1-ethyl-5-methyl-1H-pyrazol-3-yl)-3-methylbutanamide]
− (“−” No Activity < 0.15) | CCOC(=O)Nc1nn(CC)c(C)c1C1CC1 [Compound 6, ethyl (4-cyclopropyl-1-ethyl-5-methyl-1H-pyrazol-3-yl)carbamate]
+ (“+” Moderate Activity 0.15-0.7) | CCn1nc(NC(=O)CC(C)(C)C)c(C2CC2)c1C [Compound 7, N-(4-cyclopropyl-1-ethyl-5-methyl-1H-pyrazol-3-yl)-3,3-dimethylbutanamide]
+ (“+” Moderate Activity 0.15-0.7) | CCn1nc(NC(=O)Cc2ccccc2C(F)(F)F)c(C2CC2)c1C [Compound 8, N-(4-cyclopropyl-1-ethyl-5-methyl-1H-pyrazol-3-yl)-2-(2-(trifluoromethyl)phenyl)acetamide]
+ (“+” Moderate Activity 0.15-0.7) | CCn1nc(NC(=O)Cc2cc(Cl)ccc2Cl)c(C2CC2)c1C [Compound 9, N-(4-cyclopropyl-1-ethyl-5-methyl-1H-pyrazol-3-yl)-2-(2,5-dichlorophenyl)acetamide]
+ (“+” Moderate Activity 0.15-0.7) | CCn1nc(NC(=O)[C@H]2CC2(C)C)c(C2CC2)c1C [Compound 10, (S)-N-(4-cyclopropyl-1-ethyl-5-methyl-1H-pyrazol-3-yl)-2,2-dimethylcyclopropane-1-carboxamide]
− (“−” No Activity < 0.15) | CCn1nc(NC(=O)c2ccc(F)c(F)c2)c(C2CC2)c1C [Compound 11, N-(4-cyclopropyl-1-ethyl-5-methyl-1H-pyrazol-3-yl)-3,4-difluorobenzamide]
++ (“++” High Activity ≥ 0.7) | Cn1nc(NC(=O)CC2(C(F)(F)F)CC2)c(C2CCC2)c1Cc1ccccc1 [Compound 17, N-(5-benzyl-4-cyclobutyl-1-methyl-1H-pyrazol-3-yl)-2-(1-(trifluoromethyl)cyclopropyl)acetamide]
− (“−” No Activity < 0.15) | Cn1nc(NC(=O)CC(C)(C)C)c(C2CCC2)c1-c1ccc(C(C)(C)O)cc1 [Compound 29, N-(4-cyclobutyl-5-(4-(2-hydroxypropan-2-yl)phenyl)-1-methyl-1H-pyrazol-3-yl)-3,3-dimethylbutanamide]
